Results as given in ChEMBL document CHEMBL1201862, “PubChem BioAssay data set” (2004).
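Cultured in 96-well plates, cells were exposed to test compound for 48 hours across five concentrations. Abbreviation: GI50, concentration required for 50% inhibition of growth.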 Active and inactive are the calls of the source. No stated cut-off is given here; in the data, active = GI50 up to about 1.1 µM and inactive = higher.

Assays:
Assay in all cases: NCI anticancer screen, dose series, 48 h
Hs-578T = system: Hs-578T
RXF 393 = system: RXF 393
SK-MEL-28 = system: SK-MEL-28
SF-295 = system: SF-295
HT-29 = system: HT-29
NCI-H226 = system: NCI-H226
BT-549 = system: BT-549
IGROV-1 = system: IGROV-1
NCI/ADR-RES = system: NCI/ADR-RES
CCRF-CEM = system: CCRF-CEM
HL-60 = system: HL-60
SNB-75 = system: SNB-75
UACC-257 = system: UACC-257
TK-10 = system: TK-10
K562 = system: K562
T47D = system: T47D
KM12 = system: KM12
CAKI-1 = system: CAKI-1
SK-OV-3 = system: SK-OV-3
DMS-273 = system: DMS-273

| SMILES | GI50 (Hs-578T) | GI50 (RXF 393) | GI50 (SK-MEL-28) | GI50 (SF-295) | GI50 (HT-29) | GI50 (NCI-H226) | GI50 (BT-549) | GI50 (IGROV-1) | GI50 (NCI/ADR-RES) | GI50 (CCRF-CEM) | GI50 (HL-60) | GI50 (SNB-75) | GI50 (UACC-257) | GI50 (TK-10) | GI50 (K562) | GI50 (T47D) | GI50 (KM12) | GI50 (CAKI-1) | GI50 (SK-OV-3) | GI50 (DMS-273) |
| --- | --- | --- | --- | --- | --- | --- | --- | --- | --- | --- | --- | --- | --- | --- | --- | --- | --- | --- | --- | --- |
| Cc1ccc([N+](=O)[O-])cc1S(=O)(=O)Nc1ccc(C2=NN(C(=O)c3ccccc3)C(c3ccccc3O)C2)cc1 (stereo not given) | 22.8 µM (inactive) | 12.3 µM (inactive) | 28.2 µM (inactive) | 23.4 µM (inactive) | 17.7 µM (inactive) | 14.9 µM (inactive) | 14 µM (inactive) | 10.2 µM (inactive) | 27 µM (inactive) | 17.5 µM (inactive) | 18.6 µM (inactive) | 17.1 µM (inactive) | 17.3 µM (inactive) | 13.7 µM (inactive) | 15.3 µM (inactive) | 11.8 µM (inactive) | 28.6 µM (inactive) | 17.6 µM (inactive) | 19.1 µM (inactive) | – |
| CN1C(=O)C(O)CC1c1cccc(C(F)(F)F)c1 (stereo not given) | > 100 µM (inactive) | > 100 µM (inactive) | > 100 µM (inactive) | > 100 µM (inactive) | > 100 µM (inactive) | > 100 µM (inactive) | > 100 µM (inactive) | > 100 µM (inactive) | > 100 µM (inactive) | > 100 µM (inactive) | > 100 µM (inactive) | > 100 µM (inactive) | > 100 µM (inactive) | > 100 µM (inactive) | > 100 µM (inactive) | > 100 µM (inactive) | > 100 µM (inactive) | > 100 µM (inactive) | > 100 µM (inactive) | – |
| CC(C)OP(=O)(OC(C)C)C(C)(C)O | > 100 µM (inactive) | > 100 µM (inactive) | > 100 µM (inactive) | > 100 µM (inactive) | > 100 µM (inactive) | > 100 µM (inactive) | > 100 µM (inactive) | > 100 µM (inactive) | > 100 µM (inactive) | > 100 µM (inactive) | 83.2 µM (inactive) | > 100 µM (inactive) | > 100 µM (inactive) | > 100 µM (inactive) | > 100 µM (inactive) | > 100 µM (inactive) | > 100 µM (inactive) | > 100 µM (inactive) | > 100 µM (inactive) | – |
| Cn1cnc([N+](=O)[O-])c1Sc1nnnn1C | – | – | 14.3 µM (inactive) | > 100 µM (inactive) | 19.4 µM (inactive) | 44.7 µM (inactive) | – | 19.5 µM (inactive) | – | 7.46 µM (inactive) | – | 25.3 µM (inactive) | 16.3 µM (inactive) | 17.5 µM (inactive) | 16.7 µM (inactive) | – | 56.9 µM (inactive) | 17.1 µM (inactive) | > 100 µM (inactive) | 17.7 µM (inactive) |
| Cc1cc2occ(S(=O)(=O)NC(=O)Nc3ccc(Cl)cc3)c(=O)c2c(=O)o1 | > 100 µM (inactive) | > 100 µM (inactive) | > 100 µM (inactive) | > 100 µM (inactive) | > 100 µM (inactive) | > 100 µM (inactive) | > 100 µM (inactive) | > 100 µM (inactive) | > 100 µM (inactive) | > 100 µM (inactive) | > 100 µM (inactive) | > 100 µM (inactive) | > 100 µM (inactive) | > 100 µM (inactive) | > 100 µM (inactive) | > 100 µM (inactive) | > 100 µM (inactive) | > 100 µM (inactive) | > 100 µM (inactive) | – |
| O=c1[nH]nc(-c2ccccc2)n1/N=C/c1ccc([N+](=O)[O-])o1 | 27.2 µM (inactive) | 0.897 µM (active) | 4.92 µM (inactive) | 10.4 µM (inactive) | 2.49 µM (inactive) | 9.44 µM (inactive) | 6 µM (inactive) | 2.57 µM (inactive) | 5.85 µM (inactive) | 1.09 µM (active) | 8.89 µM (inactive) | 16 µM (inactive) | 4.92 µM (inactive) | 52.8 µM (inactive) | 3.64 µM (inactive) | 13.7 µM (inactive) | 6.65 µM (inactive) | 7.13 µM (inactive) | 9.29 µM (inactive) | – |
| CCOC(=O)CSc1nc(-c2ccccc2)c(C#N)c(=O)[nH]1 | > 100 µM (inactive) | > 100 µM (inactive) | > 100 µM (inactive) | > 100 µM (inactive) | > 100 µM (inactive) | > 100 µM (inactive) | > 100 µM (inactive) | > 100 µM (inactive) | > 100 µM (inactive) | > 100 µM (inactive) | > 100 µM (inactive) | > 100 µM (inactive) | > 100 µM (inactive) | > 100 µM (inactive) | > 100 µM (inactive) | > 100 µM (inactive) | > 100 µM (inactive) | > 100 µM (inactive) | > 100 µM (inactive) | – |
| CCn1c2ccc(C(=O)CCCN3CCCCC3)cc2c2cc(C(=O)CCCN3CCCCC3)ccc21 | 2.44 µM (inactive) | 2.63 µM (inactive) | 19.3 µM (inactive) | 2.43 µM (inactive) | 1.39 µM (inactive) | 11.9 µM (inactive) | 16.9 µM (inactive) | 2.08 µM (inactive) | 3.78 µM (inactive) | 2.4 µM (inactive) | 13.2 µM (inactive) | 2.24 µM (inactive) | 1.9 µM (inactive) | 2.91 µM (inactive) | 2.97 µM (inactive) | 24.2 µM (inactive) | 1.98 µM (inactive) | 3.48 µM (inactive) | 3.43 µM (inactive) | – |
| O=C1C(=Cc2ccc(F)cc2)C(=O)c2ccccc21 | – | – | > 100 µM (inactive) | > 100 µM (inactive) | > 100 µM (inactive) | > 100 µM (inactive) | – | > 100 µM (inactive) | – | 41.2 µM (inactive) | 30.5 µM (inactive) | 24.9 µM (inactive) | > 100 µM (inactive) | > 100 µM (inactive) | > 100 µM (inactive) | – | > 100 µM (inactive) | > 100 µM (inactive) | > 100 µM (inactive) | > 100 µM (inactive) |
| O=C(NNc1ccnc2cc(Cl)ccc12)/C(=C\c1ccccc1Cl)NC(=O)c1ccccc1 | 32.5 µM (inactive) | 27.2 µM (inactive) | > 100 µM (inactive) | 27.5 µM (inactive) | 47.8 µM (inactive) | 23.2 µM (inactive) | 33.8 µM (inactive) | 12.5 µM (inactive) | 24.9 µM (inactive) | 29.8 µM (inactive) | 23.4 µM (inactive) | 39.3 µM (inactive) | 34.1 µM (inactive) | 66.1 µM (inactive) | 34.6 µM (inactive) | 32.2 µM (inactive) | 20.5 µM (inactive) | 86.3 µM (inactive) | > 100 µM (inactive) | – |
| CCC12C=CCN(CCc3c([nH]c4ccccc34)/C=C\1)C2 (stereo not given) | – | – | – | > 100 µM (inactive) | > 100 µM (inactive) | > 100 µM (inactive) | – | > 100 µM (inactive) | – | > 100 µM (inactive) | > 100 µM (inactive) | 44.6 µM (inactive) | > 100 µM (inactive) | – | > 100 µM (inactive) | – | > 100 µM (inactive) | > 100 µM (inactive) | – | > 100 µM (inactive) |
| CSc1nnc(COc2ccc(Cl)cc2)o1 | – | > 100 µM (inactive) | > 100 µM (inactive) | > 100 µM (inactive) | > 100 µM (inactive) | – | – | > 100 µM (inactive) | – | – | – | > 100 µM (inactive) | > 100 µM (inactive) | > 100 µM (inactive) | – | – | > 100 µM (inactive) | > 100 µM (inactive) | > 100 µM (inactive) | > 100 µM (inactive) |
| O=C1NC(=O)C(c2c[nH]c3ccccc23)=C1c1cn(C(c2ccccc2)(c2ccccc2)c2ccccc2)cn1 | 20.8 µM (inactive) | 4.52 µM (inactive) | 16.2 µM (inactive) | 5.27 µM (inactive) | 4.06 µM (inactive) | 5.87 µM (inactive) | 12.7 µM (inactive) | 8.87 µM (inactive) | 4.29 µM (inactive) | 3.98 µM (inactive) | 2.9 µM (inactive) | 10.2 µM (inactive) | 11.2 µM (inactive) | 10.7 µM (inactive) | 4.2 µM (inactive) | 7.19 µM (inactive) | 4.06 µM (inactive) | 35.4 µM (inactive) | 14.7 µM (inactive) | – |
| O=C(O)c1cccc(CC(Br)C(=O)O)c1 (stereo not given) | > 100 µM (inactive) | > 100 µM (inactive) | > 100 µM (inactive) | > 100 µM (inactive) | > 100 µM (inactive) | > 100 µM (inactive) | > 100 µM (inactive) | > 100 µM (inactive) | > 100 µM (inactive) | > 100 µM (inactive) | > 100 µM (inactive) | > 100 µM (inactive) | > 100 µM (inactive) | > 100 µM (inactive) | > 100 µM (inactive) | > 100 µM (inactive) | > 100 µM (inactive) | > 100 µM (inactive) | > 100 µM (inactive) | – |
| CCCCCCCCCCCCCCCC(=O)NCC(COP(=O)([O-])OCC[N+](C)(C)C)OCC (stereo not given) | – | 2.1 µM (inactive) | 21 µM (inactive) | 5.2 µM (inactive) | 5.22 µM (inactive) | 3.12 µM (inactive) | – | 4.54 µM (inactive) | – | – | – | 11 µM (inactive) | 15.7 µM (inactive) | 1.63 µM (inactive) | – | – | 1.27 µM (inactive) | 19.7 µM (inactive) | 18 µM (inactive) | 2.36 µM (inactive) |
| CCc1oc2ccccc2c1C(=O)c1cc(Br)c(O)c(Br)c1 [BENZBROMARONE] | 24.5 µM (inactive) | 15.3 µM (inactive) | 41.4 µM (inactive) | 31.8 µM (inactive) | 30.3 µM (inactive) | 22.1 µM (inactive) | 28.2 µM (inactive) | 33.7 µM (inactive) | 31.6 µM (inactive) | 26.4 µM (inactive) | 13.6 µM (inactive) | 18.9 µM (inactive) | 19.3 µM (inactive) | 24.7 µM (inactive) | 30.9 µM (inactive) | 19.9 µM (inactive) | 20.7 µM (inactive) | 36.1 µM (inactive) | 37.8 µM (inactive) | – |
